Laboratory results published in paper PMC10042146, “SARS-CoV-2 M^pro Protease Variants of Concern Display Altered Viral Substrate and Cell Host Target Galectin-8 Processing but Retain Sensitivity toward Antivirals” (ACS Central Science, 2023).

Target: T1, SARS-CoV-2 M^pro (wild type) (Severe acute respiratory syndrome coronavirus 2, UniProt P0DTD1)
T1 construct: gene rep; mature nsp5 cut from replicase polyprotein 1ab (also pp1a); homodimer; purification details only in supplement
Type: biochemical

## AVI-8053
  IC50: 19 nM
